The results in this text go back to PubChem BioAssay AID218 (DTP/NCI, 2004).

Several values for one entry are separate records, joined by “and”; a condition that tells them apart may be missing. Identical values can stand only once.

In the assay the test system is C57BL/6 mice, Adenocarcinoma 755 sc, tumor weight T/C. Kind of assay: NCI In Vivo Anticancer Drug Screen. Data for tumor model Adenocarcinoma 755 (subcutaneous) in C57BL/6 mice. The settings on record: endpoint: mean tumor weight, higher = larger tumour. On the procedure:
The antitumor activity of compounds was measured in mice bearing transplantable tumors. Survival or tumor size were measured and the results are expressed as the measurement made in the treated group (T) divided by the measurement made in the vehicle treated control group (C). The tumor model used in this assay is Adenocarcinoma 755 (subcutaneous) in C57BL/6 mice

The term T/C denotes the result in the treated group divided by that in the control group, in per cent. Regarding `CCOC(N)=O`, the T/C (dose: 200.0 mg/kg/injection, schedule: Q01DX011 (ip), vehicle: saline) was 34 % of control; the T/C (dose: 300.0 mg/kg/injection, schedule: Q01DX011 (ip), vehicle: saline) is 38 % of control; the T/C (dose: 400.0 mg/kg/injection, schedule: Q01DX011 (ip), vehicle: saline) was 20 % of control; the T/C (dose: 500.0 mg/kg/injection, schedule: Q02DX006 (ip), vehicle: water) was 49 % of control; the T/C (dose: 600.0 mg/kg/injection, schedule: Q01DX011 (ip), vehicle: saline) is 3 % of control; the T/C (dose: 600.0 mg/kg/injection, schedule: Q02DX006 (ip), vehicle: water) was 34 % of control.

On to `NNC(=O)c1nsnc1NC(N)=O`, for which the T/C (dose: 6.0 mg/kg/injection, schedule: Q01DX011 (ip), vehicle: carboxymethylcellulose (CMC)) was 109 % of control; the T/C (dose: 11.0 mg/kg/injection, schedule: Q01DX011 (ip), vehicle: carboxymethylcellulose (CMC)) is 107 % of control; the T/C (dose: 22.0 mg/kg/injection, schedule: Q01DX011 (ip), vehicle: carboxymethylcellulose (CMC)) is 99 % of control.

As for `Nc1nc(=O)[nH]c2n[nH]nc12`, the T/C (dose: 5.0 mg/kg/injection, schedule: Q01DX011 (ip), vehicle: carboxymethylcellulose (CMC)) was 82 % of control; the T/C (dose: 10.0 mg/kg/injection, schedule: Q01DX011 (ip), vehicle: carboxymethylcellulose (CMC)) was 79 % of control; the T/C (dose: 25.0 mg/kg/injection, schedule: Q01DX011 (ip), vehicle: carboxymethylcellulose (CMC)) is 64 % of control.

With `CSc1nc2nc[nH]c2c(=O)[nH]1`, the T/C (dose: 50.0 mg/kg/injection, schedule: Q01DX011 (ip), vehicle: carboxymethylcellulose (CMC)) is 112 % of control.

`Nc1nc(=S)c2ncn(C3OC(CO)C(O)C3O)c2[nH]1` (centres undefined): the T/C is 48 % of control (dose: 0.5 mg/kg/injection, schedule: Q01DX011 (ip), vehicle: carboxymethylcellulose (CMC)); 13 % of control (dose: 1.0 mg/kg/injection, schedule: Q01DX011 (ip), vehicle: carboxymethylcellulose (CMC)); 2 % of control (dose: 2.0 mg/kg/injection, schedule: Q01DX011 (ip), vehicle: carboxymethylcellulose (CMC)).

In the case of `C[C@@H]1CC2=CC(=O)C=C[C@]2(C)[C@H]2CC[C@@]3(C)[C@@H](CC[C@]3(C)O)[C@H]12`, the T/C reads like this: (dose: 50.0 mg/kg/injection, schedule: Q01DX011 (sc), vehicle: steriod suspending solution) 70 % of control; (dose: 100.0 mg/kg/injection, schedule: Q01DX011 (sc), vehicle: steriod suspending solution) 73 % of control; (dose: 200.0 mg/kg/injection, schedule: Q01DX011 (sc), vehicle: steriod suspending solution) 58 % of control; (dose: 400.0 mg/kg/injection, schedule: Q01DX011 (sc), vehicle: steriod suspending solution) 29 % of control.

As to `Nc1ncnc2n[nH]nc12`, the T/C runs as follows: (dose: 20.0 mg/kg/injection, schedule: Q01DX011 (ip), vehicle: saline) 60 % of control; (dose: 30.0 mg/kg/injection, schedule: Q01DX011 (ip), vehicle: saline) 85 % of control; (dose: 40.0 mg/kg/injection, schedule: Q01DX011 (ip), vehicle: saline) 46 % of control.

As for `CS(=O)(=O)OCCC(=O)N1CCN(C(=O)CCOS(C)(=O)=O)CC1`, the T/C is, setting by setting: (dose: 6.25 mg/kg/injection, schedule: Q01DX011 (ip), vehicle: methylcellulose (MC)) 83 % of control; (dose: 12.5 mg/kg/injection, schedule: Q01DX011 (ip), vehicle: methylcellulose (MC)) 86 % of control; (dose: 25.0 mg/kg/injection, schedule: Q01DX011 (ip), vehicle: methylcellulose (MC)) 55 % of control.

Take `[N-]=[N+]=CC(=O)CCC(N)C(=O)O` (centres undefined): the T/C is, setting by setting: (dose: 0.04 mg/kg/injection, schedule: Q01DX011 (ip), vehicle: saline) 110 % of control; (dose: 0.05 mg/kg/injection, schedule: Q01DX011 (ip), vehicle: saline) 22 % of control; (dose: 0.08 mg/kg/injection, schedule: Q01DX011 (ip), vehicle: saline) 46 % of control; (dose: 25.0 micrograms/kg/injection, schedule: Q01DX011 (ip), vehicle: saline) 39 % of control; (dose: 50.0 micrograms/kg/injection, schedule: Q01DX011 (ip), vehicle: saline) 45 % of control.

Consider `C=CC(COC(C)=O)N1CC1` (centres undefined), for which the T/C by setting is: (dose: 1.87 mg/kg/injection, schedule: Q01DX011 (oral), vehicle: saline) 107 % of control; (dose: 3.75 mg/kg/injection, schedule: Q01DX011 (oral), vehicle: saline) 56 % of control; (dose: 7.5 mg/kg/injection, schedule: Q01DX011 (oral), vehicle: saline) 70 % of control and 80 % of control.
